According to patent US20150299188A1, “HETEROCYCLIC COMPOUND” (priority 2012, published 2015):

test system: FLAP (5-lipoxygenase activating protein); test: In vitro binding test: displacement of [3H]-7-chloro-3-(5-((3-fluoropyridin-2-yl)methoxy)-2-methylphenyl)-3,4-dihydroquinazolin-2(1H)-one from Sf9 microsome fractions; design: species or system human and mouse; details: Sf9 microsome fractions expressing FLAP; 100% = radioligand binding with 10 μM sodium 3-(3-(tert-butylsulfanyl)-1-(4-chlorobenzyl)-5-isopropyl-1H-indol-2-yl)-2,2-dimethylpropanoate, 0% = DMSO; test compound concentration not given
Method in brief: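 Sf9 microsomes expressing human or mouse FLAP (2 μg/mL) preincubated with compound 10 min at room temperature, then 120 nM tritiated quinazolinone ligand added for 60 min; buffer 100 mM Tris-HCl pH 7.5 with NaCl, EDTA, DTT, glycerol, Tween20. Bound ligand filtered and counted by scintillation; 10 μM indole propanoate defines 100% inhibition, DMSO 0%.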

Row | SMILES | inhibitory rate (%)
1 | COc1cccc2c1CN(c1cc(OCc3ncccc3F)ccc1C)C(=O)N2 [Example 308, 3-(5-((3-fluoropyridin-2-yl)methoxy)-2-methylphenyl)-5-methoxy-3,4-dihydroquinazolin-2(1H)-one] | 85
2 | Cc1ccc(OCc2c(F)cccc2F)cc1N1Cc2[nH]ncc2NC1=O [Example 309, 6-(5-((2,6-difluorobenzyl)oxy)-2-methylphenyl)-1,4,6,7-tetrahydro-5H-pyrazolo[4,3-d]pyrimidin-5-one] | 51
3 | Cc1ccc(OCc2ncccc2F)cc1N1Cc2c(cc[nH]c2=O)NC1=O [Example 310, 3-(5-((3-fluoropyridin-2-yl)methoxy)-2-methylphenyl)-4,6-dihydropyrido[4,3-d]pyrimidine-2,5(1H,3H)-dione] | 95
4 | Cc1ccc(OCc2c(F)cccc2F)cc1N1Cc2cnn(C)c2NC1=O [Example 311, 5-(5-((2,6-difluorobenzyl)oxy)-2-methylphenyl)-1-methyl-1,4,5,7-tetrahydro-6H-pyrazolo[3,4-d]pyrimidin-6-one] | 69
5 | O=C1Nc2ccccc2CN1c1cc(OCc2ncccc2F)ccc1CNC1CC1 [Example 312, 3-(2-((cyclopropylamino)methyl)-5-((3-fluoropyridin-2-yl)methoxy)phenyl)-3,4-dihydroquinazolin-2(1H)-one] | 86
6 | O=C1Nc2ccccc2CN1c1cc(OCc2ncccc2F)ccc1CN1CCOCC1 [Example 313, 3-(5-((3-fluoropyridin-2-yl)methoxy)-2-(morpholin-4-ylmethyl)phenyl)-3,4-dihydroquinazolin-2(1H)-one] | 64
7 | CCCN1CCN(Cc2ccc(OCc3ncccc3F)cc2N2Cc3ccccc3NC2=O)CC1 [Example 314, 3-(5-((3-fluoropyridin-2-yl)methoxy)-2-((4-propylpiperazin-1-yl)methyl)phenyl)-3,4-dihydroquinazolin-2(1H)-one] | 58
8 | Cc1ccc(OCc2ncccc2F)cc1N1Cc2c(Br)cncc2NC1=O [Example 315, 5-bromo-3-(5-((3-fluoropyridin-2-yl)methoxy)-2-methylphenyl)-3,4-dihydropyrido[3,4-d]pyrimidin-2(1H)-one] | 103
9 | CC(C)(O)c1ccc2c(c1)NC(=O)N(c1cc(OCc3c(F)cccc3F)ccc1Cc1ccccn1)C2 [Example 316, 3-(5-((2,6-difluorobenzyl)oxy)-2-(pyridin-2-ylmethyl)phenyl)-7-(2-hydroxypropan-2-yl)-3,4-dihydroquinazolin-2(1H)-one] | 50
10 | O=C1Nc2cc(CO)ccc2CN1c1cc(OCc2c(F)cccc2F)ccc1Cc1ccccn1 [Example 317, 3-(5-((2,6-difluorobenzyl)oxy)-2-(pyridin-2-ylmethyl)phenyl)-7-(hydroxymethyl)-3,4-dihydroquinazolin-2(1H)-one] | 54
11 | Cc1ccc(OCc2ncccc2F)cc1N1Cc2c(Cl)ncnc2NC1=O [Example 318, 5-chloro-3-(5-((3-fluoropyridin-2-yl)methoxy)-2-methylphenyl)-3,4-dihydropyrimido[4,5-d]pyrimidin-2(1H)-one] | 62
12 | COc1ncnc2c1CN(c1cc(OCc3ncccc3F)ccc1C)C(=O)N2 [Example 319, 3-(5-((3-fluoropyridin-2-yl)methoxy)-2-methylphenyl)-5-methoxy-3,4-dihydropyrimido[4,5-d]pyrimidin-2(1H)-one] | 52
13 | Cc1ccc(OCc2ncccc2F)cc1N1Cc2c(ccnc2C2CC2)NC1=O [Example 320, 5-cyclopropyl-3-(5-((3-fluoropyridin-2-yl)methoxy)-2-methylphenyl)-3,4-dihydropyrido[4,3-d]pyrimidin-2(1H)-one] | 101
14 | Cc1ccc(OCc2ncccc2F)cc1N1Cc2c(ccnc2C#N)NC1=O [Example 321, 3-(5-((3-fluoropyridin-2-yl)methoxy)-2-methylphenyl)-2-oxo-1,2,3,4-tetrahydropyrido[4,3-d]pyrimidine-5-carbonitrile] | 90
15 | Cc1ccc(OCc2ncccc2F)cc1N1Cc2c(ccnc2C(N)=O)NC1=O [Example 322, 3-(5-((3-fluoropyridin-2-yl)methoxy)-2-methylphenyl)-2-oxo-1,2,3,4-tetrahydropyrido[4,3-d]pyrimidine-5-carboxamide] | 97
16 | Cc1ccc(OCc2ncccc2F)cc1N1Cc2c(ccnc2C)NC1=O [Example 323, 3-(5-((3-fluoropyridin-2-yl)methoxy)-2-methylphenyl)-5-methyl-3,4-dihydropyrido[4,3-d]pyrimidin-2(1H)-one] | 94
17 | O=c1[nH]c2ccccc2c(=O)n1-c1cc(OCc2c(F)cccc2F)ccn1 [Example 324, 3-(4-((2,6-difluorobenzyl)oxy)pyridin-2-yl)quinazoline-2,4(1H,3H)-dione] | 50
18 | O=c1[nH]c2cc[nH]c2c(=O)n1-c1cccc(OCc2c(F)cccc2F)c1 [Example 325, 3-(3-((2,6-difluorobenzyl)oxy)phenyl)-1H-pyrrolo[3,2-d]pyrimidine-2,4(3H,5H)-dione] | 65

Row | SMILES | inhibitory rate (%)
19 | O=c1[nH]c2ccccc2c(=O)n1-c1ccc2c(c1)OC(c1c(F)cccc1F)CC2 (centres unmarked) [Example 326, 3-(2-(2,6-difluorophenyl)-3,4-dihydro-2H-chromen-7-yl)quinazoline-2,4(1H,3H)-dione] | 95
20 | Cc1cc2c(cc1-n1c(=O)[nH]c3ccccc3c1=O)OC(c1ncccc1F)CC2 (centres unmarked) [Example 327, 3-(2-(3-fluoropyridin-2-yl)-6-methyl-3,4-dihydro-2H-chromen-7-yl)quinazoline-2,4(1H,3H)-dione] | 107
21 | COCCn1c(=O)n(-c2cc3c(cc2C)CCC(c2ncccc2F)O3)c(=O)c2ccccc21 (centres unmarked) [Example 328, 3-(2-(3-fluoropyridin-2-yl)-6-methyl-3,4-dihydro-2H-chromen-7-yl)-1-(2-methoxyethyl)quinazoline-2,4(1H,3H)-dione] | 111
22 | Cn1c(=O)n(-c2ccc3c(c2)OC(c2c(F)cccc2F)CC3)c(=O)c2ccccc21 (centres unmarked) [Example 329, 3-(2-(2,6-difluorophenyl)-3,4-dihydro-2H-chromen-7-yl)-1-methylquinazoline-2,4(1H,3H)-dione] | 103
23 | O=c1[nH]c2cnccc2c(=O)n1-c1cccc(OCc2c(F)cccc2F)c1 [Example 330, 3-(3-((2,6-difluorobenzyl)oxy)phenyl)pyrido[3,4-d]pyrimidine-2,4(1H,3H)-dione] | 72
24 | Cn1c(=O)n(-c2cccc(OCc3c(F)cccc3F)c2)c(=O)c2ccncc21 [Example 331, 3-(3-((2,6-difluorobenzyl)oxy)phenyl)-1-methylpyrido[3,4-d]pyrimidine-2,4(1H,3H)-dione] | 51
25 | Cc1ccc(OCc2c(F)cccc2F)cc1-n1c(=O)[nH]c2nc(N3CCOCC3)sc2c1=O [Example 334, 6-(5-((2,6-difluorobenzyl)oxy)-2-methylphenyl)-2-(morpholin-4-yl)[1,3]thiazolo[4,5-d]pyrimidine-5,7(4H,6H)-dione] | 93
26 | COC(=O)c1ccc2c(=O)n(-c3cc(OCc4c(F)cccc4F)ccc3C)c(=O)[nH]c2c1 [Example 335, methyl 3-(5-((2,6-difluorobenzyl)oxy)-2-methylphenyl)-2,4-dioxo-1,2,3,4-tetrahydroquinazoline-7-carboxylate] | 103
27 | Cc1ccc(OCc2c(F)cccc2F)cc1-n1c(=O)[nH]c2cc(C(C)(C)O)ccc2c1=O [Example 336, 3-(5-((2,6-difluorobenzyl)oxy)-2-methylphenyl)-7-(2-hydroxypropan-2-yl)quinazoline-2,4(1H,3H)-dione] | 108
28 | Cc1ccc(OCc2ncccc2F)cc1-n1c(=O)[nH]c2ccccc2c1=O [Example 337, 3-(5-((3-fluoropyridin-2-yl)methoxy)-2-methylphenyl)quinazoline-2,4(1H,3H)-dione] | 104
29 | Cc1ccc(OCc2ncccc2F)cc1-n1c(=O)[nH]c2cccnc2c1=O [Example 338, 3-(5-((3-fluoropyridin-2-yl)methoxy)-2-methylphenyl)pyrido[3,2-d]pyrimidine-2,4(1H,3H)-dione] | 90
30 | Cc1ccc(OCc2ncccc2F)cc1-n1c(=O)[nH]c2cnccc2c1=O [Example 339, 3-(5-((3-fluoropyridin-2-yl)methoxy)-2-methylphenyl)pyrido[3,4-d]pyrimidine-2,4(1H,3H)-dione] | 106
31 | Cc1ccc(OCc2ncccc2F)cc1-n1c(=O)[nH]c2cc([N+](=O)[O-])ccc2c1=O [Example 341, 3-(5-((3-fluoropyridin-2-yl)methoxy)-2-methylphenyl)-7-nitroquinazoline-2,4(1H,3H)-dione] | 102
32 | Cc1ccc(OCc2ncccc2F)cc1-n1c(=O)[nH]c2cnc(Cl)cc2c1=O [Example 342, 6-chloro-3-(5-((3-fluoropyridin-2-yl)methoxy)-2-methylphenyl)pyrido[3,4-d]pyrimidine-2,4(1H,3H)-dione] | 101
33 | Cc1ccc(OCc2ncccc2F)cc1-n1c(=O)[nH]c2ncccc2c1=O [Example 343, 3-(5-((3-fluoropyridin-2-yl)methoxy)-2-methylphenyl)pyrido[2,3-d]pyrimidine-2,4(1H,3H)-dione] | 101
34 | O=c1[nH]c2ccccc2c(=O)n1-c1cc(OCc2ncccc2F)ccc1Cl [Example 344, 3-(2-chloro-5-((3-fluoropyridin-2-yl)methoxy)phenyl)quinazoline-2,4(1H,3H)-dione] | 114
35 | O=c1[nH]c2ccccc2c(=O)n1-c1cc(OCc2ncccc2F)ccc1F [Example 345, 3-(2-fluoro-5-((3-fluoropyridin-2-yl)methoxy)phenyl)quinazoline-2,4(1H,3H)-dione] | 114
